What was measured:
6 Hz 44 mA animal model = assay: 6 Hz 44 mA psychomotor seizure test (ETSP anticonvulsant screening); assay type: in vivo, Carworth Farms no. 1 (CF1) mice; conditions: 300 mg/kg, ip, mice
Procedure: (§1) Initial evaluation for anticonvulsant activity was done by the Epilepsy Therapy Screening Program Branch, National Institute of Neurological Disorders and Stroke. Phase I evaluation included three tests: maximal electroshock (MES), 6 Hz, and rotarod test for neurological toxicity (Tox). The studies were done in normal adult male Carworth Farms no. 1 (CF1) mice using four or more mice pre-test. Intraperitoneal (ip) administration of the test compounds was carried out as a suspension in 0.5% methylcellulose. The compounds were tested at doses ranging from 30 mg/kg to 300 mg/kg. The animals were pretreated with the test compound at time intervals of 0.5 h and 2 h. The rotarod neurologic toxicity test was completed at each dose and time point. The MES test is a high frequency (60 Hz), short duration ([…]) stimulus delivered through corneal electrodes in normal rodents while the 6 Hz 44 mA psychomotor test is a long duration (3 s) and low frequency (6 Hz). Compounds active in the MES Identification Phase tests are screened for their ability to block seizures induced in the 6 Hz psychomotor focal seizures animal model of epilepsy. The compounds effective in the 6-Hz model during the Identification phase become candidates for advanced screening in the Differentiation Phase.

[1] = system: maximal electroshock (MES) model; assay: maximal electroshock (MES) test (ETSP anticonvulsant screening); assay type: in vivo, Carworth Farms no. 1 (CF1) mice; conditions: ip, mice; for animals protected in MES model: 300 mg/kg
Procedure: as §1

O=C1C=C(NC(=O)c2ccc(C(F)(F)F)cc2)CC(C(F)(F)F)C1 (stereo not shown) [Compound 7, N-(3-oxo-5-(trifluoromethyl)cyclohex-1-en-1-yl)-4 (trifluoro-methyl)-benzamide]
25%: protection in 6 Hz 44 mA model (6 Hz 44 mA animal model) | protection in MES model ([1]; 100 mg/kg, after 2 h) | animals protected in MES model ([1]; 0.5 h) | animals protected in MES model ([1]; 2 h)

Reference: patent publication US20250296910A1, “BENZAMIDE ENAMINONE DERIVATIVES AND METHODS OF USE THEREOF” (University of Maryland, Eastern Shore, priority 2022, published 2025)
